Results reported in patent US9637469B2, “Pyridine derivative” (Teijin Pharma Limited, priority 2012, dated 2017).

target: T1, human URAT1 (Homo sapiens, UniProt Q96S37); assay: Test for inhibition of uric acid transport using human URAT1-expressing cells;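 further: three stars up to 0.2 µM two stars 0.2-2 µM one star 2-20 µM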; type: cell-based; settings: HEK 293 cells expressing human URAT1; 14C-labeled uric acid 25 μM; uptake 37° C. for 5 min
T1 construct: Full-length cDNA of human URAT1 (hURAT1)
T1 sequence (Q96S37 1-553): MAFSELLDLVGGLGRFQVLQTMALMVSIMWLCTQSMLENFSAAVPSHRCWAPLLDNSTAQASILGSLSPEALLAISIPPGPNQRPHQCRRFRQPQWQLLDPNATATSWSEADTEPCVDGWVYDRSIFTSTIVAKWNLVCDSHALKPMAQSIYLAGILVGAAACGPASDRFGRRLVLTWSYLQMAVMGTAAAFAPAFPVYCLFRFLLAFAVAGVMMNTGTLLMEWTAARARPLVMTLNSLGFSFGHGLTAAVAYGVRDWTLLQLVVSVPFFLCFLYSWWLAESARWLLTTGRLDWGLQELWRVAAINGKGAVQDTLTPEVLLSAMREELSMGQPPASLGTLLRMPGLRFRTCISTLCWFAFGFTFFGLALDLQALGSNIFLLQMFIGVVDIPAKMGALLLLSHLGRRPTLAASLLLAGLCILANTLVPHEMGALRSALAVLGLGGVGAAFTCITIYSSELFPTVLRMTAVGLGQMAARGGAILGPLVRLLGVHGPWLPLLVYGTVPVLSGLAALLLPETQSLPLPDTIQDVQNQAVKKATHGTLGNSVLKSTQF
Summary of the method: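 HEK293 cells stably transfected with full-length hURAT1, preincubated 10 min at 37 °C in HBSS with NaCl replaced by Na gluconate. Uptake of 25 μM ¹⁴C-uric acid with compound ran 5 min at 37 °C, then scintillation counting. IC50 derived from % of DMSO-control URAT1-specific uptake.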

Inhibitory Activity (IC50 of uric acid transport inhibition)	Structure (SMILES)
* * *	Clc1cncc(-c2ncc(-c3nnn[nH]3)n2Cc2cc(Cl)ccc2Cl)c1 [Compound A237, 3-chloro-5-(1-(2,5-dichlorobenzyl)-5-(1H-tetrazol-5-yl)-1H-imidazol-2-yl)pyridine]
* *	Cc1ccc(C)c(Cn2c(-c3ccncc3)nc(C)c2C(=O)O)c1 [Compound A238, 1-(2,5-dimethylbenzyl)-4-methyl-2-(pyridin-4-yl)-1H-imidazole-5-carboxylic acid]
* *	COc1cccc(-c2nc(C)c(C(=O)O)n2Cc2cccc3ccccc23)n1 [Compound A240, 2-(6-methoxypyridin-2-yl)-4-methyl-1-(naphthalen-1-ylmethyl)-1H-imidazole-5-carboxylic acid]
* *	Cc1nc(-c2ccncc2)n(Cc2cc(Cl)ccc2Cl)c1C(=O)O [Compound A244, 1-(2,5-dichlorobenzyl)-4-methyl-2-(pyridin-4-yl)-1H-imidazole-5-carboxylic acid]
* * *	Cc1nc(-c2ccccn2)n(Cc2cc(Cl)ccc2Cl)c1C(=O)O [Compound A245, 1-(2,5-dichlorobenzyl)-4-methyl-2-(pyridin-2-yl)-1H-imidazole-5-carboxylic acid]
* *	COc1cccc(-c2nc(C)c(C(=O)O)n2Cc2cc(Cl)ccc2Cl)n1 [Compound A246, 1-(2,5-dichlorobenzyl)-2-(6-methoxypyridin-2-yl)-4-methyl-1H-imidazole-5-carboxylic acid]
* *	Cc1nc(Oc2ccccn2)n(Cc2cc(Cl)ccc2Cl)c1C(=O)O [Compound A247, 1-(2,5-dichlorobenzyl)-4-methyl-2-(pyridin-2-yloxy)-1H-imidazole-5-carboxylic acid]
* * *	Cc1nc(Oc2cccnc2)n(Cc2cc(Cl)ccc2Cl)c1C(=O)O [Compound A248, 1-(2,5-dichlorobenzyl)-4-methyl-2-(pyridin-3-yloxy)-1H-imidazole-5-carboxylic acid]
* * *	Cc1nc(Oc2cncc(Cl)c2)n(Cc2cc(Cl)ccc2Cl)c1C(=O)O [Compound A250, 2-((5-chloropyridin-3-yl)oxy)-1-(2,5-dichlorobenzyl)-4-methyl-1H-imidazole-5-carboxylic acid]
* * *	Cc1nc(Oc2cncc(Br)c2)n(Cc2cc(Cl)ccc2Cl)c1C(=O)O [Compound A251, 2-((5-bromopyridin-3-yl)oxy)-1-(2,5-dichlorobenzyl)-4-methyl-1H-imidazole-5-carboxylic acid]
* * *	Cc1ncccc1Oc1nc(C)c(C(=O)O)n1Cc1cc(Cl)ccc1Cl [Compound A252, 1-(2,5-dichlorobenzyl)-4-methyl-2-((2-methylpyridin-3-yl)oxy)-1H-imidazole-5-carboxylic acid]
* * *	Cc1nc(Oc2cccnc2Cl)n(Cc2cc(Cl)ccc2Cl)c1C(=O)O [Compound A253, 2-((2-chloropyridin-3-yl)oxy)-1-(2,5-dichlorobenzyl)-4-methyl-1H-imidazole-5-carboxylic acid]
* * *	Cc1nc(Oc2cccnc2Br)n(Cc2cc(Cl)ccc2Cl)c1C(=O)O [Compound A254, 2-((2-bromopyridin-3-yl)oxy)-1-(2,5-dichlorobenzyl)-4-methyl-1H-imidazole-5-carboxylic acid]
* * *	Cc1cncc(Oc2nc(C)c(C(=O)O)n2Cc2cc(Cl)ccc2Cl)c1 [Compound A255, 1-(2,5-dichlorobenzyl)-4-methyl-2-((5-methylpyridin-3-yl)oxy)-1H-imidazole-5-carboxylic acid]
* * *	Cc1ccncc1Oc1nc(C)c(C(=O)O)n1Cc1cc(Cl)ccc1Cl [Compound A256, 1-(2,5-dichlorobenzyl)-4-methyl-2-((4-methylpyridin-3-yl)oxy)-1H-imidazole-5-carboxylic acid]
* * *	Cc1nc(Oc2cnccc2Cl)n(Cc2cc(Cl)ccc2Cl)c1C(=O)O [Compound A257, 2-((4-chloropyridin-3-yl)oxy)-1-(2,5-dichlorobenzyl)-4-methyl-1H-imidazole-5-carboxylic acid]
* * *	Cc1nc(Oc2cnccc2Br)n(Cc2cc(Cl)ccc2Cl)c1C(=O)O [Compound A258, 2-((4-bromopyridin-3-yl)oxy)-1-(2,5-dichlorobenzyl)-4-methyl-1H-imidazole-5-carboxylic acid]
* *	CC(C)(Sc1cnc(-c2cncc(Cl)c2)n1Cc1cc(Cl)ccc1Cl)C(=O)O [Compound A262, 2-((2-(5-chloropyridin-3-yl)-1-(2,5-dichlorobenzyl)-1H-imidazol-5-yl)thio)-2-methylpropanoic acid]
* *	O=C(O)C1(Sc2cnc(-c3cncc(Cl)c3)n2Cc2cc(Cl)ccc2Cl)CCC1 [Compound A263, 1-((2-(5-chloropyridin-3-yl)-1-(2,5-dichlorobenzyl)-1H-imidazol-5-yl)thio)cyclobutanecarboxylic acid]
* *	CC(C)(Sc1ncc(-c2cncc(Cl)c2)n1Cc1cc(Cl)ccc1Cl)C(=O)O [Compound A266, 2-((5-(5-chloropyridin-3-yl)-1-(2,5-dichlorobenzyl)-1H-imidazol-2-yl)thio)-2-methylpropanoic acid]
* * *	Cc1ccc(Cn2c(C(=O)O)ccc2-c2cccnc2)c2ccccc12 [Compound B2, 1-((4-methylnaphthalen-1-yl)methyl)-2-(pyridin-3-yl)-1H-pyrrole-5-carboxylic acid]
* * *	O=C(O)c1ccc(-c2cccnc2)n1Cc1csc2cccc(Br)c12 [Compound B3, 1-((4-bromobenzo[b]thiophen-3-yl)methyl)-2-(pyridin-3-yl)-1H-pyrrole-5-carboxylic acid]
* *	Cc1ccc2ccccc2c1Cn1c(C(=O)O)ccc1-c1cccnc1 [Compound B4, 1-((2-methylnaphthalen-1-yl)methyl)-2-(pyridin-3-yl)-1H-pyrrole-5-carboxylic acid]
* * *	O=C(O)c1ccc(-c2cccnc2)n1Cc1cccc2cccc(Br)c12 [Compound B6, 1-((8-bromonaphthalen-1-yl)methyl)-2-(pyridin-3-yl)-1H-pyrrole-5-carboxylic acid]
* * *	Cc1cccc2scc(Cn3c(C(=O)O)ccc3-c3cccnc3)c12 [Compound B7, 1-((4-methylbenzo[b]thiophen-3-yl)methyl)-2-(pyridin-3-yl)-1H-pyrrole-5-carboxylic acid]
* * *	O=C(O)c1ccc(-c2cccnc2)n1Cc1csc2ccccc12 [Compound B8, 1-(benzo[b]thiophen-3-ylmethyl)-2-(pyridin-3-yl)-1H-pyrrole-5-carboxylic acid]
* * *	O=C(O)c1ccc(-c2cccnc2)n1Cc1csc2cccc(C(F)(F)F)c12 [Compound B9, 2-(pyridin-3-yl)-1-((4-(trifluoromethyl)benzo[b]thiophen-3-yl)methyl)-1H-pyrrole-5-carboxylic acid]
* * *	O=C(O)c1ccc(-c2cccnc2)n1Cc1csc2cccc(Cl)c12 [Compound B10, 1-((4-chlorobenzo[b]thiophen-3-yl)methyl)-2-(pyridin-3-yl)-1H-pyrrole-5-carboxylic acid]
* * *	Cc1ccc(C)c(Cn2c(C(=O)O)ccc2-c2cccnc2)c1 [Compound B12, 1-(2,5-dimethylbenzyl)-2-(pyridin-3-yl)-1H-pyrrole-5-carboxylic acid]

same assay, conditions: HEK 293 cells expressing human URAT1; 14C-labeled uric acid 25 μM; uptake 37° C. for 5 min; read-out: Inhibitory Activity (IC50 of uric acid transport inhibition)

IC50 [µM]	Structure (SMILES)
2 to 20	Cc1nc(-c2ccncc2)n(Cc2cccc3ccccc23)c1C(=O)O [Compound A239]
2 to 20	Cc1ccc2ccccc2c1Cn1c(-c2ccccn2)nc(C)c1C(=O)O [Compound A241]
2 to 20	Cc1nc(-c2ccnc(Cl)c2)n(Cc2cccc3ccccc23)c1C(=O)O [Compound A242]
2 to 20	Cc1nc(-c2ccccn2)n(Cc2cccc3ccccc23)c1C(=O)O [Compound A243]
2 to 20	O=C(O)/C=C/c1cnc(-c2cccnc2)n1Cc1cccc2ccccc12 [Compound A259]
2 to 20	O=C(O)/C=C/c1cnc(-c2cccnc2)n1Cc1cc(Cl)ccc1Cl [Compound A260]
2 to 20	CC(C)(Sc1cnc(-c2cccnc2)n1Cc1cc(Cl)ccc1Cl)C(=O)O [Compound A261]
2 to 20	CC(C)(Sc1ncc(-c2cccnc2)n1Cc1cc(Cl)ccc1Cl)C(=O)O [Compound A264]
2 to 20	CC(C)(Sc1ncc(-c2cncc(F)c2)n1Cc1cc(Cl)ccc1Cl)C(=O)O [Compound A265]
